Earlier results, collected in patent US20050118256A1, “Extended release alpha-2 agonist pharmaceutical dosage forms” (priority 2003, published 2005).
Counter-ions that a name gives are not always drawn.

Test system: skeletal muscle fibers, neuromuscular junction, spinal reflexes
Settings: animal models

SMILES: Clc1ccc2nsnc2c1NC1=NCCN1 [Tizanidine, 5-chloro-4-(2-imidazolin-2-ylamino)-2,1,3-benzothiodiazole hydrochloride]
- effect on monosynaptic spinal reflexes: no major effect
- effect on skeletal muscle fibers or the neuromuscular junction: no direct effect
